This note sets out measurements from patent US20250235476A1, “METHODS AND COMPOSITIONS THAT ARE ALTERNATIVES TO ANTIBIOTICS” (priority 2022, published 2025).

The subject of the assay is non-specific upper respiratory infection (URI). Briefly: Randomized double-blind placebo-controlled clinical trial: Days To Recovery (DTR). The assay is classed as in vivo, human. Particulars: added to EZC during acute phase of illness. Here is the method:
Methods: A total of 360 patients across the United States were enrolled and randomized in a double-blind manner across two intervention groups, EZC, EZCD, and one placebo group. The study was conducted utilizing a smartphone-based app to screen, enroll and capture study data of the participants. Once a study participant reported the first symptoms of a URI, they were advised to take the intervention as directed and complete the daily symptom survey score until their symptoms resolved.
A total of 360 individuals, male or female over 18 years old, were enrolled by a third-party clinical research organization (CRO), to participate in the study. […] The placebo was composed of rice concentrate.
The study was conducted with the CRO's technology platform utilized to screen, enroll and capture study data of the participants.
Once a study participant reported the first symptoms of a URI, they were advised to take the intervention (i.e., placebo, EZC, or EZCD) taper dosed over a five-day period.
DTR is a metric that measures the total number of days in which a patient is experiencing symptoms of an illness while taking the intervention or placebo. DTR also directly lends itself for use in a log-rank analysis, which is used to compute statistical significance.
The primary limitation of DTR arises from the heterogeneous nature of the illness and the patient's unique recovery. […]

For vitamin D, the “effect of addition of vitamin D on illness duration or symptom severity” value was “neither benefited nor harmed”.
